Our source for the EC50 values is US9067897B2, “2,4-Diaminoquinazolines for spinal muscular atrophy” (Families of Spinal Muscular Atrophy, priority 2004, dated 2015).

The term EC50 denotes the concentration that produces a half-maximal response.

The subject of the assay is SMN2 promoter. Description: SMN2 promoter assay (β-lactamase reporter) in NSC-34 cells. The note with it: Mus musculus, SMN2 promoter driving β-lactamase, 12 point dose curve, average of 3-6 dose curve experiments. Type of assay: cell-based, mouse. An excerpt: All compounds were screened using an in vitro based SMN2 promoter assay. We used NSC-34 cells, a hybrid cell line between mouse spinal cord cells and mouse neuroblastoma cells. NSC-34 cells harbor an expression plasmid containing a 3.4 kb promoter fragment of the SMN2 gene driving β-lactamase expression.
[…] […] CCF2-AM diffuses across the plasma membrane and is converted into an active β-lactamase substrate by cytoplasmic esterase. […] The fold induction is proportional to the extent of β-lactamase produced and in turn proportional to SMN2 promoter activation for a given compound relative to vehicle (DMSO) control. […] These values are used to rank activities of the compounds and derive structure activity relationship.
`Nc1nc(N)c2c(-c3cccc(Cl)c3)cccc2n1` [Example 91, 5-(3-Chlorophenyl)-quinazoline-2,4-diamine] had a 50% effective concentration (EC50) of under 1000 nM.

The compound `C[C@@H](Oc1cccc2nc(N)nc(N)c12)c1cccc(Cl)c1` [Example 92, 5-[(R)-1-(3-Chlorophenyl)ethoxyl]quinazolin-2,4-diamine] registered an EC50 of under 1000 nM.

The compound `CC(Oc1cccc2nc(N)nc(N)c12)c1cccc(F)c1` (centres unmarked) [Example 93, 5-[1-(3-Fluorophenyl)-ethoxy]-quinazoline-2,4-diamine] came in with an EC50 of under 1000 nM.

As for `CC(Oc1cccc2nc(N)nc(N)c12)c1ccccc1C(F)(F)F` (centres unmarked) [Example 94, 5-[1-(2-Trifluoromethylphenyl)-ethoxy]-quinazoline-2,4-diamine], the 50% effective concentration (EC50) was 10000 to 20000 nM.

The compound `CC(Oc1cccc2nc(N)nc(N)c12)c1cccc(C(F)(F)F)c1` (centres unmarked) [Example 95, 5-[1-(3-Trifluoromethylphenyl)-ethoxy]-quinazoline-2,4-diamine] yielded a concentration giving a half-maximal response (EC50) of under 1000 nM.

Consider `Nc1nc(N)c2c(OCc3ccccc3F)cccc2n1` [Example 96, 5-(2-Fluorobenzyloxy)-quinazoline-2,4-diamine], for which the EC50 was under 1000 nM.

Take `Nc1nc(N)c2c(OCc3ccc(F)cc3)cccc2n1` [Example 97, 5-(4-Fluorobenzyloxy)-quinazoline-2,4-diamine]: the EC50 is under 1000 nM.

Compound `Nc1nc(N)c2c(OCc3cccc(C(F)(F)F)c3)cccc2n1` [Example 98, 5-(3-Trifluoromethylbenzyloxy)-quinazoline-2,4-diamine] displayed a 50% effective concentration (EC50) of under 1000 nM.

With `Nc1nc(N)c2c(OCc3ccccc3C(F)(F)F)cccc2n1` [Example 99, 5-(2-Trifluoromethylbenzyloxy)-quinazoline-2,4-diamine], the half-maximal effective concentration (EC50) was under 1000 nM.

The compound `Nc1nc(N)c2c(OCc3ccc(C(F)(F)F)cc3)cccc2n1` [Example 100, 5-(4-Trifluoromethylbenzyloxy)-quinazoline-2,4-diamine] came in with an EC50 of under 1000 nM.

Compound `CC(Oc1cccc2nc(N)nc(N)c12)c1ccccc1F` (centres unmarked) [Example 103, 5-[1-(2-Fluorophenyl)-ethoxy]-quinazoline-2,4-diamine] returned a concentration giving a half-maximal response (EC50) of under 1000 nM.

The compound `CC(Oc1cccc2nc(N)nc(N)c12)c1ccccc1Cl` (centres unmarked) [Example 104, 5-[1-(2-Chlorophenyl)ethoxy]-quinazoline-2,4-diamine] displayed an EC50 of under 1000 nM.

Compound `CC(Oc1cccc2nc(N)nc(N)c12)c1ccc(C(F)(F)F)cc1` (centres unmarked) [Example 105, 5-[1-(4-Trifluoromethylphenyl)ethoxy]quinazoline-2,4-diamine] returned an EC50 of under 1000 nM.

Compound `Nc1nc(N)c2c(OCc3cc(Cl)cc(Cl)c3)cccc2n1` [Example 106, 5-(3,5-Dichlorobenzyloxy)quinazoline-2,4-diamine] registered a half-maximal effective concentration (EC50) of under 1000 nM.

With `CC(Oc1cccc2nc(N)nc(N)c12)c1cc(F)cc(F)c1` (centres unmarked) [Example 107, 5-[1-(3,5-Difluorophenyl)ethoxy]quinazoline-2,4-diamine], the concentration for a half-maximal effect (EC50) was under 1000 nM.

`C[C@H](Oc1cccc2nc(N)nc(N)c12)c1cccc2ccccc12` [Example 108, 5-((S)-1-Naphthalen-1-yl-ethoxy)-quinazoline-2,4-diamine] registered a half-maximal effective concentration (EC50) of 1000 to 5000 nM.

`C[C@H](Oc1cccc2nc(N)nc(N)c12)c1ccc2ccccc2c1` [Example 109, 5-((S)-1-Naphthalen-2-yl-ethoxy)-quinazoline-2,4-diamine] displayed a concentration for a half-maximal effect (EC50) of under 1000 nM.

`C[C@@H](Oc1cccc2nc(N)nc(N)c12)c1cccc2ccccc12` [Example 110, 5-((R)-1-Naphthalen-1-yl-ethoxy)-quinazoline-2,4-diamine] gave a concentration giving a half-maximal response (EC50) of 1000 to 5000 nM.

As for `CC(Oc1cccc2nc(N)nc(N)c12)c1cccc2ccccc12` (centres unmarked) [Example 111, 5-(1-Naphthalen-1-yl-ethoxy)-quinazoline-2,4-diamine], the EC50 is 1000 to 5000 nM.

For `Nc1nc(N)c2c(OCc3cnc4ccccc4c3)cccc2n1` [Example 112, 5-(Quinolin-3-ylmethoxy)-quinazoline-2,4-diamine], the concentration for a half-maximal effect (EC50) is under 1000 nM.
